Results: US20230203445A1, “HYPOIMMUNOGENIC CELLS” (HEALIOS K.K., priority 2020, published 2023)

Tested on: iCaspase9-introduced cells
Assay: Suicide gene function: cell death induction by rapamycin (CellTiter Glo)
Type: cell-based, human
Conditions: 24 hr
Procedure: Next, an experiment was conducted to confirm whether the introduced suicide gene is functionable. In order to confirm the function of the suicide gene iCaspase9 introduced into universal donor iPS cells as a safety mechanism, the cell death induction by the addition of rapamycin in vitro was confirmed. In order to evaluate the cell death induction efficiency, CellTiter Glo Assay Kit (Promega) was used to luminescence measure the cell viability based on the amount of ATP, which is an index of cell viability. The above-mentioned iCaspase9-introduced cells (clone B), and iCaspase9-free unedited cells (Parental) were cultured for 24 hr under the condition of each rapamycin concentration (0 nM, 0.003 nM, 0.01 nM, 0.03 nM, 0.1 nM, 0.3 nM, 1 nM) and the viable cell rate was measured.

CO[C@H]1C[C@@H]2CC[C@@H](C)[C@@](O)(O2)C(=O)C(=O)N2CCCC[C@H]2C(=O)O[C@H]([C@H](C)C[C@@H]2CC[C@@H](O)[C@H](OC)C2)CC(=O)[C@H](C)/C=C(\C)[C@@H](O)[C@@H](OC)C(=O)[C@H](C)C[C@H](C)/C=C/C=C/C=C/1C [rapamycin]
rapamycin concentration at which cell death was induced by iCaspase9: ≥ 0.1 nM
